test system: C6; assay: Antiproliferative activity against rat C6 cells after 48 hrs by MTT assay; assay type: functional, cell-based; details: C6, 48 h

SMILES	EC50 [µM]
Cc1ccc([P@@]2(=O)O[C@H](COCc3ccccc3)[C@@H](OCc3ccccc3)[C@H](OCc3ccccc3)[C@@H]2O)cc1	> 25
O=[P@@]1(c2cccc(C(F)(F)F)c2)O[C@H](COCc2ccccc2)[C@@H](OCc2ccccc2)[C@H](OCc2ccccc2)[C@@H]1O	> 25
O=C(O[C@@H]1[C@@H](OCc2ccccc2)[C@H](OCc2ccccc2)[C@@H](COCc2ccccc2)O[P@@]1(=O)c1ccccc1)C(F)(F)F	> 25
Cc1cccc([P@@]2(=O)O[C@H](COCc3ccccc3)[C@@H](OCc3ccccc3)[C@H](OCc3ccccc3)[C@H]2O)c1	> 25
Cc1cccc([P@]2(=O)O[C@H](COCc3ccccc3)[C@@H](OCc3ccccc3)[C@H](OCc3ccccc3)[C@H]2O)c1	> 25
[N-]=[N+]=N[C@H]1[C@@H](OCc2ccccc2)[C@H](OCc2ccccc2)[C@@H](COCc2ccccc2)O[P@@]1(=O)c1ccccc1	> 25
O=[P@]1(c2cccc(F)c2)O[C@H](COCc2ccccc2)[C@@H](OCc2ccccc2)[C@H](OCc2ccccc2)[C@@H]1O	> 25
O=[P@@]1(c2cccc(F)c2)O[C@H](COCc2ccccc2)[C@@H](OCc2ccccc2)[C@H](OCc2ccccc2)[C@@H]1O	> 25
O=[P@]1(c2ccccc2)O[C@H](COCc2ccccc2)[C@@H](OCc2ccccc2)[C@H](OCc2ccccc2)[C@H]1O	12
O=[P@@]1(c2cccc(F)c2)O[C@H](COCc2ccccc2)[C@@H](OCc2ccccc2)[C@H](OCc2ccccc2)[C@H]1O	> 25
O=[P@]1(c2ccccc2)O[C@H](COCc2ccccc2)[C@@H](OCc2ccccc2)[C@H](OCc2ccccc2)[C@@H]1O (single isomer, unassigned)	12
Cc1ccc([P@]2(=O)O[C@H](COCc3ccccc3)[C@@H](OCc3ccccc3)[C@H](OCc3ccccc3)[C@@H]2O)cc1	> 25
COc1cccc([P@@]2(=O)O[C@H](COCc3ccccc3)[C@@H](OCc3ccccc3)[C@H](OCc3ccccc3)[C@@H]2O)c1	> 25
COc1ccc([P@]2(=O)O[C@H](COCc3ccccc3)[C@@H](OCc3ccccc3)[C@H](OCc3ccccc3)[C@@H]2O)cc1	2.9
N[C@H]1[C@@H](OCc2ccccc2)[C@H](OCc2ccccc2)[C@@H](COCc2ccccc2)O[P@@]1(=O)c1ccccc1	18.7
COc1cccc([P@]2(=O)O[C@H](COCc3ccccc3)[C@@H](OCc3ccccc3)[C@H](OCc3ccccc3)[C@H]2O)c1	> 25
O=[P@]1(c2cccc(F)c2)O[C@H](COCc2ccccc2)[C@@H](OCc2ccccc2)[C@H](OCc2ccccc2)[C@H]1O	> 25
CSC(=S)O[C@@H]1[C@@H](OCc2ccccc2)[C@H](OCc2ccccc2)[C@@H](COCc2ccccc2)O[P@@]1(=O)c1ccccc1	14
CC(=O)O[C@@H]1[C@@H](OCc2ccccc2)[C@H](OCc2ccccc2)[C@@H](COCc2ccccc2)O[P@@]1(=O)c1ccccc1	11.9
O=[P@@]1(c2ccccc2)O[C@H](COCc2ccccc2)[C@@H](OCc2ccccc2)[C@H](OCc2ccccc2)[C@H]1OCc1ccccc1	5.3
O=[P@]1(c2cccc(C(F)(F)F)c2)O[C@H](COCc2ccccc2)[C@@H](OCc2ccccc2)[C@H](OCc2ccccc2)[C@H]1O	> 25
O=C(Nc1ccccc1)N[C@@H]1[C@@H](OCc2ccccc2)[C@H](OCc2ccccc2)[C@@H](COCc2ccccc2)O[P@@]1(=O)c1ccccc1	4.4
Cc1cccc([P@@]2(=O)O[C@H](COCc3ccccc3)[C@@H](OCc3ccccc3)[C@H](OCc3ccccc3)[C@@H]2O)c1	> 25
O=[P@@]1(c2cccc(C(F)(F)F)c2)O[C@H](COCc2ccccc2)[C@@H](OCc2ccccc2)[C@H](OCc2ccccc2)[C@H]1O	> 25
CO[C@@H]1[C@@H](OCc2ccccc2)[C@H](OCc2ccccc2)[C@@H](COCc2ccccc2)O[P@@]1(=O)c1ccccc1	16.6
C=CCN[C@@H]1[C@@H](OCc2ccccc2)[C@H](OCc2ccccc2)[C@@H](COCc2ccccc2)O[P@@]1(=O)c1ccccc1	0.49
O=[P@]1(c2ccccc2)C[C@@H](OCc2ccccc2)[C@H](OCc2ccccc2)[C@@H](COCc2ccccc2)O1	8.3

— ChEMBL document CHEMBL2029220, “Oxaphosphinanes: new therapeutic perspectives for glioblastoma” (J Med Chem, 2012)
